Consider 32 molecules from ChEMBL document CHEMBL1140725, “Pradefovir: a prodrug that targets adefovir to the liver for the treatment of hepatitis B” (J Med Chem, 2008).

Some results are limits rather than exact numbers.

One data set concerns Liver microsomes. Description: Prodrug activation in Wistar rat liver microsome assessed as formation of adefovir at 250 uM after 5 mins.
Settings: not given
In general terms: Microsomes from liver hold many membrane-bound enzymes, among them those of drug oxidation.
For the molecule `Cc1cc(C)cc(C2CCOP(=O)(COCCn3cnc4c(N)ncnc43)O2)c1` (centres undefined), the Activity came to 1.6 nmol/min/mg.
For the molecule `COc1ccc(Br)c(C2CCOP(=O)(COCCn3cnc4c(N)ncnc43)O2)c1` (centres undefined), the Activity worked out at 4 nmol/min/mg.
As for `Nc1ncnc2c1ncn2CCOCP1(=O)OCCC(c2ccsc2)O1` (centres undefined), the Activity worked out at 0.5 nmol/min/mg.
Regarding `Nc1ncnc2c1ncn2CCOCP1(=O)OCCC(c2cccc(Cl)c2)O1` (stereo in doubt; 3h), the Activity turned out to be 10.9 nmol/min/mg.
Regarding `Nc1ncnc2c1ncn2CCOCP1(=O)OCCC(c2cccc(F)c2)O1` (centres undefined), the Activity is on record as < 1 nmol/min/mg.
For the molecule `Nc1ncnc2c1ncn2CCOCP1(=O)OCCC(c2ccccc2)O1` (centres undefined), the Activity is listed as 2.9 nmol/min/mg.
Still for that read-out and setting: under `Nc1ncnc2c1ncn2CCOCP1(=O)OCCC(c2cccc(Cl)c2Cl)O1` (centres undefined) stands < 4.5 nmol/min/mg; under `Nc1ncnc2c1ncn2CCOCP1(=O)OCCC(c2cccc(Cl)c2)O1` (cis isomer), 0.421 nmol/min/mg; under `Nc1ncnc2c1ncn2CCOCP1(=O)OCCC(c2ccc(Cl)cc2Cl)O1` (centres undefined), 2.5 nmol/min/mg.
As to `COc1ccc(Br)cc1C1CCOP(=O)(COCCn2cnc3c(N)ncnc32)O1` (centres undefined), the Activity was < 1 nmol/min/mg.
For the molecule `Nc1ncnc2c1ncn2CCOCP1(=O)OCCC(c2cccc(F)c2F)O1` (centres undefined), the Activity is 6.3 nmol/min/mg.
On to `Nc1ncnc2c1ncn2CCOCP1(=O)OCCC(c2ccccc2Cl)O1` (centres undefined), for which the Activity is given as 6.2 nmol/min/mg.
Consider `Nc1ncnc2c1ncn2CCOCP1(=O)OCCC(c2ccc(Cl)c(Cl)c2)O1` (centres undefined), for which the Activity is 1.5 nmol/min/mg.
For the molecule `COc1ccc(C2CCOP(=O)(COCCn3cnc4c(N)ncnc43)O2)cc1Br` (centres undefined), the Activity is recorded as 1.1 nmol/min/mg.
Still for that read-out and setting: under `Nc1ncnc2c1ncn2CCOCP1(=O)OCCC(c2ccccc2F)O1` (centres undefined) stands < 1 nmol/min/mg; under `Nc1ncnc2c1ncn2CCOCP1(=O)OCCC(c2cc(Cl)cc(Cl)c2)O1` (centres undefined), 1.9 nmol/min/mg; under `Nc1ncnc2c1ncn2CCOCP1(=O)OCCC(c2ccc(F)cc2F)O1` (centres undefined), 2.5 nmol/min/mg.
Consider `Nc1ncnc2c1ncn2CCOCP1(=O)OCCC(c2cccnc2)O1` (centres undefined), for which the Activity amounted to 2.9 nmol/min/mg.
With `CC(C)(C)c1ccc(C2CCOP(=O)(COCCn3cnc4c(N)ncnc43)O2)cc1` (centres undefined), the Activity stood at 0.5 nmol/min/mg.
As to `Nc1ncnc2c1ncn2CCOCP1(=O)OCCC(c2ccccc2Br)O1` (centres undefined), the Activity is 3.5 nmol/min/mg.
Turning to `Nc1ncnc2c1ncn2CCOCP1(=O)OCCC(c2cc(F)cc(F)c2)O1` (centres undefined), the Activity is recorded as 1.5 nmol/min/mg.
Regarding `Nc1ncnc2c1ncn2CCOCP1(=O)OCCC(c2ccncc2)O1` (centres undefined), the Activity is reported as 4.5 nmol/min/mg.
On to `Nc1ncnc2c1ncn2CCOCP1(=O)OCCC(c2cccc(Cl)c2)O1` (trans isomer), for which the Activity was < 0.01 nmol/min/mg.
On to `Nc1ncnc2c1ncn2CCOCP1(=O)OCCC(c2cccc(Br)c2)O1` (centres undefined), for which the Activity is listed as 1.9 nmol/min/mg.
On the same count and under the same terms, the result for `Nc1ncnc2c1ncn2CCOCP1(=O)OCCC(c2c(Cl)cccc2Cl)O1` (centres undefined) reads < 1 nmol/min/mg; that for `Nc1ncnc2c1ncn2CCOCP1(=O)OCCC(c2cc(F)ccc2F)O1` (centres undefined), 2.3 nmol/min/mg.
With `Nc1ncnc2c1ncn2CCOC[P@@]1(=O)OCC[C@@H](c2cccc(Cl)c2)O1` [PRADEFOVIR], the Activity was determined as 0.51 nmol/min/mg.
With `Nc1ncnc2c1ncn2CCOCP1(=O)OCCC(c2ccoc2)O1` (centres undefined), the Activity amounted to 4 nmol/min/mg.
Same read-out and setting: under `Nc1ncnc2c1ncn2CCOCP1(=O)OCCC(c2c(F)cccc2F)O1` (centres undefined) stands 1.5 nmol/min/mg; under `Nc1ncnc2c1ncn2CCOC[P@]1(=O)OCC[C@H](c2cccc(Cl)c2)O1`, 0.193 nmol/min/mg.

The next data set relates to Hepatocyte. Description: Prodrug activation in intracellular rat hepatocytes assessed as formation of adefovir diphosphate after 2 hrs. Format: cell-based.
Settings: not given
On to `Cc1cc(C)cc(C2CCOP(=O)(COCCn3cnc4c(N)ncnc43)O2)c1` (centres undefined), for which the Activity came to 40.7 nmol·h/g.
For the molecule `COc1ccc(Br)c(C2CCOP(=O)(COCCn3cnc4c(N)ncnc43)O2)c1` (centres undefined), the Activity is < 0.5 nmol·h/g.
Take `Nc1ncnc2c1ncn2CCOCP1(=O)OCCC(c2ccsc2)O1` (centres undefined): the Activity was determined as 0 nmol·h/g.
For `Nc1ncnc2c1ncn2CCOCP1(=O)OCCC(c2cccc(Cl)c2)O1` (stereo in doubt; 3h), the Activity was determined as 109.3 nmol·h/g.
For the molecule `Nc1ncnc2c1ncn2CCOCP1(=O)OCCC(c2ccccc2)O1` (centres undefined), the Activity is 149.1 nmol·h/g.
Consider `Nc1ncnc2c1ncn2CCOCP1(=O)OCCC(c2ccc(Cl)cc2Cl)O1` (centres undefined), for which the Activity came to 9.8 nmol·h/g.
The same measure, in the same setting: the result for `Nc1ncnc2c1ncn2CCOCP1(=O)OCCC(c2ccc(Cl)c(Cl)c2)O1` (centres undefined) reads 6.2 nmol·h/g.
Consider `COc1ccc(C2CCOP(=O)(COCCn3cnc4c(N)ncnc43)O2)cc1Br` (centres undefined), for which the Activity was < 0.5 nmol·h/g.
As to `Nc1ncnc2c1ncn2CCOCP1(=O)OCCC(c2cc(Cl)cc(Cl)c2)O1` (centres undefined), the Activity was 64.4 nmol·h/g.
With `Nc1ncnc2c1ncn2CCOCP1(=O)OCCC(c2cccnc2)O1` (centres undefined), the Activity worked out at 26.7 nmol·h/g.
For `CC(C)(C)c1ccc(C2CCOP(=O)(COCCn3cnc4c(N)ncnc43)O2)cc1` (centres undefined), the Activity was 0 nmol·h/g.
Regarding `Nc1ncnc2c1ncn2CCOCP1(=O)OCCC(c2ccccc2Br)O1` (centres undefined), the Activity amounted to 43.1 nmol·h/g.
With `Nc1ncnc2c1ncn2CCOCP1(=O)OCCC(c2cc(F)cc(F)c2)O1` (centres undefined), the Activity worked out at 61.9 nmol·h/g.
Turning to `Nc1ncnc2c1ncn2CCOCP1(=O)OCCC(c2ccncc2)O1` (centres undefined), the Activity is 106.2 nmol·h/g.
For the molecule `Nc1ncnc2c1ncn2CCOCP1(=O)OCCC(c2cccc(Br)c2)O1` (centres undefined), the Activity is 70.3 nmol·h/g.
As to `Nc1ncnc2c1ncn2CCOCP1(=O)OCCC(c2ccoc2)O1` (centres undefined), the Activity was 0 nmol·h/g.

A further data set deals with Rattus norvegicus. Description: Prodrug activation in Sprague-Dawley rat liver hepatocytes assessed as formation of adefovir diphosphate at 30 mg/kg, po after 8 hrs. Format: organism-based, Hepatocyte.
Settings: not given
More on the design: dose 30 mg/kg, route oral.
Consider `Nc1ncnc2c1ncn2CCOCP1(=O)OCCC(c2cccc(Cl)c2)O1` (stereo in doubt; 3h), for which the Activity amounted to 6.6 nmol·h/g.
With `Nc1ncnc2c1ncn2CCOCP1(=O)OCCC(c2ccccc2)O1` (centres undefined), the Activity amounted to 0.6 nmol·h/g.
`Nc1ncnc2c1ncn2CCOCP1(=O)OCCC(c2cc(Cl)cc(Cl)c2)O1` (centres undefined): the Activity was 2 nmol·h/g.
Same read-out and setting: under `Nc1ncnc2c1ncn2CCOCP1(=O)OCCC(c2ccccc2Br)O1` (centres undefined) stands 7.1 nmol·h/g; under `Nc1ncnc2c1ncn2CCOCP1(=O)OCCC(c2cc(F)cc(F)c2)O1` (centres undefined), 2.2 nmol·h/g.
With `Nc1ncnc2c1ncn2CCOCP1(=O)OCCC(c2ccncc2)O1` (centres undefined), the Activity was found to be 1.2 nmol·h/g.
In the case of `Nc1ncnc2c1ncn2CCOCP1(=O)OCCC(c2cccc(Br)c2)O1` (centres undefined), the Activity is 2.2 nmol·h/g.

Another data set relates to Liver. Description: Biodistribution in rat liver at 30 mg/kg, po after 24 hrs. Format: ADME, organism-based. The following applies: in vivo. The arrangement: dose 30 mg/kg, route oral.
`Nc1ncnc2c1ncn2CCOCP1(=O)OCCC(c2cccc(Cl)c2)O1` (cis isomer) returned a Drug uptake of 884 nmol·h/g.
For the molecule `CC(C)(C)C(=O)OCOP(=O)(COCCn1cnc2c(N)ncnc21)OCOC(=O)C(C)(C)C` [ADEFOVIR DIPIVOXIL], the Drug uptake came to 284 nmol·h/g.

For a further data set, the system named is Kidney. Description: Biodistribution in rat kidney at 30 mg/kg, po after 24 hrs. It is filed as ADME, organism-based. The arrangement: dose 30 mg/kg, route oral. The note with it: in vivo.
As to `Nc1ncnc2c1ncn2CCOCP1(=O)OCCC(c2cccc(Cl)c2)O1` (cis isomer), the Drug uptake came out at 196 nmol·h/g.
The molecule `CC(C)(C)C(=O)OCOP(=O)(COCCn1cnc2c(N)ncnc21)OCOC(=O)C(C)(C)C` [ADEFOVIR DIPIVOXIL] registered a Drug uptake of 742 nmol·h/g.

The subject of another data set is Rattus norvegicus. Description: Biodistribution in rat small intestine at 30 mg/kg, po after 24 hrs. The following applies: in vivo. More on the design: dose 30 mg/kg, route oral. It is filed as ADME, organism-based.
`Nc1ncnc2c1ncn2CCOCP1(=O)OCCC(c2cccc(Cl)c2)O1` (cis isomer) showed a Drug uptake of 118 nmol·h/g.
Regarding `CC(C)(C)C(=O)OCOP(=O)(COCCn1cnc2c(N)ncnc21)OCOC(=O)C(C)(C)C` [ADEFOVIR DIPIVOXIL], the Drug uptake turned out to be 3206 nmol·h/g.

The next data set deals with Plasma. Description: Biodistribution in rat plasma at 30 mg/kg, po after 24 hrs. Format: ADME, organism-based. The arrangement: dose 30 mg/kg, route oral. The following applies: in vivo.
As to `Nc1ncnc2c1ncn2CCOCP1(=O)OCCC(c2cccc(Cl)c2)O1` (cis isomer), the Drug uptake stood at 55 nmol·h/g.
`CC(C)(C)C(=O)OCOP(=O)(COCCn1cnc2c(N)ncnc21)OCOC(=O)C(C)(C)C` [ADEFOVIR DIPIVOXIL] came in with a Drug uptake of 34 nmol·h/g.

A further data set relates to Liver. Description: Selectivity index, ratio of biodistribution in rat liver to kidney at 30 mg/kg, po after 24 hrs. Format: organism-based. The arrangement: dose 30 mg/kg, route oral. The note with it: in vivo.
For `Nc1ncnc2c1ncn2CCOCP1(=O)OCCC(c2cccc(Cl)c2)O1` (cis isomer), the Selectivity index came out at 4.5.
For the molecule `CC(C)(C)C(=O)OCOP(=O)(COCCn1cnc2c(N)ncnc21)OCOC(=O)C(C)(C)C` [ADEFOVIR DIPIVOXIL], the Selectivity index stood at 0.4.

The test system of another data set is Intestine. Description: Selectivity index, ratio of biodistribution in rat liver to intestine at 30 mg/kg, po after 24 hrs. Format: organism-based. More on the design: dose 30 mg/kg, route oral. The following applies: in vivo.
As for `Nc1ncnc2c1ncn2CCOCP1(=O)OCCC(c2cccc(Cl)c2)O1` (cis isomer), the Selectivity index was 7.5.
For the molecule `CC(C)(C)C(=O)OCOP(=O)(COCCn1cnc2c(N)ncnc21)OCOC(=O)C(C)(C)C` [ADEFOVIR DIPIVOXIL], the Selectivity index was 0.08.

The next data set has as its system Rattus norvegicus. Description: Cmax in rat liver at 30 mg/kg, po. Format: ADME, organism-based. More on the design: dose 30 mg/kg, route oral. The note with it: in vivo.
With `Nc1ncnc2c1ncn2CCOCP1(=O)OCCC(c2cccc(Cl)c2)O1` (cis isomer), the Cmax is 8 nmol/g.
In turn, `CS(=O)(=O)O.Nc1ncnc2c1ncn2CCOCP1(=O)OCCC(c2cccc(Cl)c2)O1` (centres undefined) yielded a Cmax of 19.6 nmol/g.
As to `Nc1ncnc2c1ncn2CCOC[P@@]1(=O)OCC[C@@H](c2cccc(Cl)c2)O1` [PRADEFOVIR], the Cmax is recorded as 12.2 nmol/g.
Still for that read-out and setting: the result for `Nc1ncnc2c1ncn2CCOC[P@]1(=O)OCC[C@H](c2cccc(Cl)c2)O1` reads 5.4 nmol/g.
